In series [1] the target is 15N-labeled α-syn (Homo sapiens, UniProt P37840). Nature of the series: NMR analysis (HSQC, PRE) of 15N-labeled α-syn with SVD-1a (FIG. 12). Particulars: 25 μM α-syn : SVD-1a 1:1, PBS pH 7.4, 10° C. It counts as binding. The protocol:
Analogs of SVD-1a spin-labeled with nitroxyl radicals were produced by reacting (1-oxyl-2,2,5,5-tetramethyl-Δ3-pyrroline-3-methyl) methanethiosulfonate (MTSL) (Toronto Research Chemicals, USA) with SVD-1a_Cys, leading to covalent bonding of the nitroxyl radical spin label MTSL to the C-terminal D-cysteine residue. A fivefold molar excess of MTSL relative to the peptide, i.e. ˜4 mg MTSL (˜15 μmol) was dissolved in 90 μl N,N-dimethylformamide (DMF) and mixed with 810 μl 200 mM HEPES/NaOH buffer, pH 7.6. The solution was then added to ˜5 mg (˜3 μmol) of lyophilized SVD-1a_Cys. […]
The samples were produced at final concentrations of 25 μM full-length ^15N-labeled acetyl-α-syn in the absence (reference) and in the presence of an equimolar amount of SVD-1a (not isotope-labeled, therefore invisible to NMR) in PBS buffer, pH 7.4, with addition of 5% D2O as internal reference. 2D-^1H-^15N-HSQC spectra were recorded back-to-back with a Bruker AVANCE NEO spectrometer (Bruker, USA) at 1200 MHz proton Larmor frequency. […]
The NMR datasets were processed using the Bruker TopSpin software (Version 4.1.1) and visualized using CcpNmr Analysis (v2.4.2) (50). […] From the residue-specific changes in chemical shift in the ^1H and ^15N dimensions, an absolute change in chemical shift was calculated according to the following formula: […]

The subject of series [2] is PC12 cells. It counts as cell-based. Particulars: rat, 24 h, 0.5 μM. The protocol: PC12 cells (Leibniz-Institut DSMZ, GE) were cultured at 37° C. on a collagen A-coated (Biochrom GmbH, GE) tissue culture flask in RPMI 1640 medium, supplemented with 5% fetal calf serum and 10% horse serum in an atmosphere humidified to 95% with 5% CO2. 10 000 cells per well in a volume of 100 μl were seeded into collagen A-coated 96-well plates (Thermo Fisher Scientific, USA and incubated for 24 hours at 37° C. and 300 rpm in a thermocycler.
Furthermore, 15 μM of the peptides alone, cell media, buffer without peptide and 0.1% Triton X-100 (cytotoxic compound) were used as controls. After further incubation in a 95% humidified atmosphere with 5% CO2 at 37° C. for 24 hours, the viability of the cells was measured using the Cell Proliferation Kit I (MTT) (Roche Applied Science, CH), following the manufacturer's protocol.
The MTT-formazan product was quantified by measuring the absorbance at 570 nm, corrected by subtracting the absorbance at 660 nm, in a FluoroStar Optima plate reader (BMG labtech, GE). All results were normalized to untreated cells grown only in medium. The significance test was carried out by one-way ANOVA with Bonferroni post-hoc analysis (OriginPro 2020, OriginLab, USA; n=4).
The significance test was carried out by one-way ANOVA with Bonferroni post-hoc analysis: […], ***p≤0.01. The means are stated±SD (n=4).

The target in series [3] is WT α-syn (Homo sapiens, UniProt P37840). Nature of the series: Single cycle SPR experiment of WT α-syn on CM5-immobilized peptides (FIG. 8). The settings on record: 1:1 binding model fit, CM5 chip, PBS pH 7.4, 0.005% Tween-20. As for the experimental part: Each peptide was immobilized on a CM5 sensor chip surface. WT α-syn was injected in a concentration range of 30-500 nM in PBS, PH 7.4, 0.005% (v/v) Tween-20. Regeneration was carried out after every cycle with 2 M Gua-HCl for 2×30 sec. The KDs were determined with a 1:1 binding model fit, as follows: SVD-1a: 15.7 nM; SVD-6a: 14.0 nM; SVD-10a: 12.3 nM.
Background: In SPR one partner is held on a chip, and binding of the other changes the refractive index at the surface.

pKd: −log10 of the molar value. Square brackets hold non-standard residues; d marks the D form. Peptide text beside a SMILES is read from it.

The text below walks through data of patent publication US20250346629A1, “USE OF D-ENANTIOMERIC PEPTIDE LIGANDS OF MONOMERIC ALPHA-SYNUCLEIN FOR THE THERAPY OF VARIOUS SYNUCLEINOPATHIES” (PRIAVOID GMBH, priority 2021, published 2025).

As to `CC[C@@H](C)[C@@H](NC(=O)[C@@H](Cc1c[nH]cn1)NC(=O)[C@@H](CCC(=O)O)NC(=O)[C@@H](CCC(N)=O)NC(=O)[C@@H](Cc1c[nH]c2ccccc12)NC(=O)[C@@H](Cc1ccc(O)cc1)NC(=O)[C@H](NC(=O)[C@@H](CCC(=O)O)NC(=O)[C@@H](Cc1c[nH]cn1)NC(=O)[C@H](NC(=O)[C@H]1CCCN1C(=O)[C@@H](CC(C)C)NC(=O)[C@H](N)CCCNC(=N)N)[C@H](C)O)[C@H](C)O)C(=O)N[C@H](Cc1c[nH]c2ccccc12)C(=O)N[C@H](Cc1c[nH]cn1)C(=O)N[C@H](C)C(=O)N[C@H](CCCNC(=N)N)C(=O)N[C@H](CCCNC(=N)N)C(=O)N[C@H](CCCNC(=N)N)C(=O)N[C@H](CCCNC(=N)N)C(=O)N[C@H](CCCNC(=N)N)C(N)=O` [SVD-1a, rlpthetywqehiwharrrrr] (H-[dR][dL][dP][dT][dH][dE][dT][dY][dW][dQ][dE][dH][dI][dW][dH][dA][dR][dR][dR][dR][dR]-NH2), the “binding region on α-syn (PRE intensity ratios)” value in series [1] is “somewhat more pronounced (transient) bonding interaction of SVD-1a with residues in the C-terminal region of α-syn”. In series [2], the “cells saved (cell viability)” value came to 82%. In series [3], this compound showed a pKd of 7.80.

One may read the pKd as the negative decadic logarithm of the Kd, by convention in mol/L.
